In patent US7300946B2, “N-(substituted arylmethyl)-4-(disubstituted methyl) piperidines and pyridines” (Bayer CropScience AG, priority 2002, dated 2007):

Test system: tobacco budworm (Heliothis virescens [Fabricius])
Experiment: surface-treated diet test against the tobacco budworm
Type: in vivo
Conditions: tobacco budworm second instar larvae, 0.25 millimoles of candidate insecticide on the surface of the diet, five-day exposure; for Percent Mortality: compared to total number of insects infested; for Percent Growth Inhibition: inhibition of insect weight relative to untreated controls
Summary of the method: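 Wheat germ artificial diet surface-treated with 40 µL of 50 mM DMSO stock diluted 1:7 in 1:1 water/acetone (0.25 millimolar on diet), or sub-multiples for rate tests. One second-instar larva per well, 25° C, 60% RH, 5 days; percent weight inhibition vs DMSO controls and percent mortality.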

Row | SMILES | Percent Mortality | Percent Growth Inhibition
1 | CC(C)OC(=O)Nc1ccc(C[N+]2([O-])CCC(=C(c3ccc(F)cc3)c3ccc(F)cc3)CC2)cc1 (stereo not shown) [Compound 832] | 83% | 100%
2 | CC(C)OC(=O)Nc1ccc(C[N+]2([O-])CCC(=C(c3ccc(Cl)c(Cl)c3)c3ccc(Cl)c(Cl)c3)CC2)cc1 (stereo not shown) [Compound 833] | 100% | 100%
3 | CC(C)OC(=O)Nc1ccc(C[N+]2([O-])CCC(=C(c3ccc(Cl)c(F)c3)c3ccc(Cl)c(F)c3)CC2)cc1 (stereo not shown) [Compound 834] | 100% | 100%
4 | COc1ccc(C(=C2CC[N+]([O-])(Cc3ccc(NC(=O)OC(C)C)cc3)CC2)c2ccc(OC)cc2)cc1 (stereo not shown) [Compound 835] | 0% | 80%
5 | C=CCOC(=O)Nc1ccc(C[N+]2([O-])CCC(=C(c3ccc(C(F)(F)F)cc3)c3ccc(C(F)(F)F)cc3)CC2)cc1 (stereo not shown) [Compound 836] | 100% | 100%
6 | CC=CCOC(=O)Nc1ccc(C[N+]2([O-])CCC(=C(c3ccc(C(F)(F)F)cc3)c3ccc(C(F)(F)F)cc3)CC2)cc1 (stereo not shown) [Compound 837] | 100% | 100%
7 | C#CCOC(=O)Nc1ccc(C[N+]2([O-])CCC(=C(c3ccc(C(F)(F)F)cc3)c3ccc(C(F)(F)F)cc3)CC2)cc1 (stereo not shown) [Compound 838] | 100% | 100%
8 | [O-][N+]1(Cc2ccc(Oc3ccccc3F)cc2)CCC(=C(c2ccc(C(F)(F)F)cc2)c2ccc(C(F)(F)F)cc2)CC1 (stereo not shown) [Compound 839] | 100% | 100%
9 | [O-][N+]1(Cc2ccc(-c3ccccn3)cc2)CCC(=C(c2ccc(C(F)(F)F)cc2)c2ccc(C(F)(F)F)cc2)CC1 (stereo not shown) [Compound 840] | 100% | 100%
10 | [O-][N+]1(Cc2ccc(Oc3ccccn3)cc2)CCC(=C(c2ccc(Cl)cc2)c2ccc(Cl)cc2)CC1 (stereo not shown) [Compound 841] | 100% | 100%
11 | [O-][N+]1(Cc2ccc(Oc3ccccn3)cc2)CCC(=C(c2ccc(F)cc2)c2ccc(F)cc2)CC1 (stereo not shown) [Compound 842] | 100% | 100%
12 | [O-][N+]1(Cc2ccc(Nc3ccccn3)cc2)CCC(=C(c2ccc(C(F)(F)F)cc2)c2ccc(C(F)(F)F)cc2)CC1 (stereo not shown) [Compound 843] | 100% | 100%
13 | [O-][N+]1(Cc2ccc(Oc3ncccn3)cc2)CCC(=C(c2ccc(Cl)cc2)c2ccc(Cl)cc2)CC1 (stereo not shown) [Compound 844] | 100% | 100%
14 | [O-][N+]1(Cc2ccc(Oc3ncccn3)cc2)CCC(=C(c2ccc(C(F)(F)F)cc2)c2ccccc2Cl)CC1 (stereo not shown) [Compound 845] | 83% | 100%
15 | [O-][N+]1(Cc2ccc(Oc3ncccn3)cc2)CCC(=C(c2ccc(C(F)(F)F)cc2)c2cccc(Cl)c2)CC1 (stereo not shown) [Compound 846] | 100% | 100%
16 | [O-][N+]1(Cc2ccc(Oc3ncccn3)cc2)CCC(=C(c2ccc(Cl)cc2)c2ccc(C(F)(F)F)cc2)CC1 (stereo not shown) [Compound 847] | 100% | 100%
17 | [O-][N+]1(Cc2ccc(Oc3ncccn3)cc2)CCC(=C(c2ccc(C(F)(F)F)cc2)c2cccc(F)c2)CC1 (stereo not shown) [Compound 848] | 83% | 100%
18 | [O-][N+]1(Cc2ccc(Oc3ncccn3)cc2)CCC(=C(c2ccc(Cl)c(Cl)c2)c2ccc(Cl)c(Cl)c2)CC1 (stereo not shown) [Compound 849] | 100% | 100%
19 | [O-][N+]1(Cc2ccc(Oc3ncccn3)cc2)CCC(=C(c2ccc(C(F)(F)F)cc2)c2ccc(Cl)c(Cl)c2)CC1 (stereo not shown) [Compound 850] | 100% | 100%
20 | [O-][N+]1(Cc2ccc(Oc3ncccn3)cc2)CCC(=C(c2ccc(C(F)(F)F)cc2)c2cc(Cl)cc(Cl)c2)CC1 (stereo not shown) [Compound 851] | 50% | 100%
21 | [O-][N+]1(Cc2ccc(Oc3ncccn3)cc2)CCC(=C(c2ccc(C(F)(F)F)cc2)c2ccc(Cl)c(F)c2)CC1 (stereo not shown) [Compound 852] | 100% | 100%
22 | [O-][N+]1(Cc2ccc(Oc3ncccn3)cc2)CCC(=C(c2ccc(C(F)(F)F)cc2)c2cccc(C(F)(F)F)c2)CC1 (stereo not shown) [Compound 853] | 100% | 100%
23 | [O-][N+]1(Cc2ccc(Oc3ncccn3)cc2)CCC(=C(c2ccc(C(F)(F)F)cc2)c2ccc(C(F)(F)F)cc2)CC1 (stereo not shown) [Compound 854] | 100% | 100%
24 | [O-][N+]1(Cc2ccc(Oc3ccc(Cl)nn3)cc2)CCC(=C(c2ccc(C(F)(F)F)cc2)c2ccc(C(F)(F)F)cc2)CC1 (stereo not shown) [Compound 855] | 100% | 100%
25 | [O-][N+]1(Cc2ccc(Oc3ncccn3)cc2)CCC(=C(c2ccc(C(F)(F)F)cc2)c2cc(Cl)cc(Cl)c2)CC1 (stereo not shown) [Compound 856] | 50% | 100%
26 | [O-][N+]1(Cc2ccc(Oc3ncccn3)cc2)CCC(=C(c2ccc(C(F)(F)F)cc2)c2ccccc2Cl)CC1 (stereo not shown) [Compound 857] | 83% | 100%
27 | FC(F)(F)c1ccc(C(=C2CCN(Cc3ccc(Oc4ccccc4)nc3)CC2)c2ccc(C(F)(F)F)cc2)cc1 [Compound 858] | 17% | 99%
28 | FC(F)(F)c1ccc(C(=C2CCN(Cc3ccc(Nc4ncccn4)nc3)CC2)c2ccc(C(F)(F)F)cc2)cc1 [Compound 859] | 0% | 46%
29 | CCOS(=O)(=O)[O-].CCO[N+]1(Cc2ccc(Oc3ccccn3)cc2)CCC(C(OC(=O)Nc2ccc(Cl)cc2)c2ccc(C(F)(F)F)cc2)CC1 (stereo not shown) [Compound 860, N-(4-chlorophenyl)({1-ethoxy-1-[(4-(2-pyridyloxy)phenyl)methyl](4-piperidyl)}[4-(trifluoromethyl)phenyl]methoxy)carboxamide, ethyl sulfate salt] | 100% | 100%
